Results from PMC11584562 (The Journal of Biological Chemistry, 2024).

T1: CnAcs1 (Cryptococcus neoformans, UniProt J9VFT1)
T1 sequence (J9VFT1 1-680): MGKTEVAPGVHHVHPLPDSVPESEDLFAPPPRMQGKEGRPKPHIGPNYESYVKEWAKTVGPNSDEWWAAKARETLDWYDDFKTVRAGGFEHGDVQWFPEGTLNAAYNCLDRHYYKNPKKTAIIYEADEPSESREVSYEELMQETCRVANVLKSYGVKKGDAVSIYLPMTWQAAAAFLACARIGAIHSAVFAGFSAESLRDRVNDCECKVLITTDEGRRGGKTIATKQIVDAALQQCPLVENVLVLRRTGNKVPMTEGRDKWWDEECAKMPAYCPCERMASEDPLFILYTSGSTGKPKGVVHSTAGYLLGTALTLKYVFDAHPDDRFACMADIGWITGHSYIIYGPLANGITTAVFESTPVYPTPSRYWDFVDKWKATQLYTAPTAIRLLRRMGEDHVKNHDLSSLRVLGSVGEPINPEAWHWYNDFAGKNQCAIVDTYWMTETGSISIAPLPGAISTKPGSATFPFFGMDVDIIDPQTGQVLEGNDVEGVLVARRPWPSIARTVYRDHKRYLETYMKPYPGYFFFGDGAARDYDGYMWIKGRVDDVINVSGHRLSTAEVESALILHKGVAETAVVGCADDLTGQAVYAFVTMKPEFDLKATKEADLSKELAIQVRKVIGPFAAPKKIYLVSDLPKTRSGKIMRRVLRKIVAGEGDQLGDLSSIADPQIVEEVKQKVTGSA

T2: CnKbc1 (Cryptococcus neoformans, UniProt J9VT24)
T2 sequence (J9VT24 1-696): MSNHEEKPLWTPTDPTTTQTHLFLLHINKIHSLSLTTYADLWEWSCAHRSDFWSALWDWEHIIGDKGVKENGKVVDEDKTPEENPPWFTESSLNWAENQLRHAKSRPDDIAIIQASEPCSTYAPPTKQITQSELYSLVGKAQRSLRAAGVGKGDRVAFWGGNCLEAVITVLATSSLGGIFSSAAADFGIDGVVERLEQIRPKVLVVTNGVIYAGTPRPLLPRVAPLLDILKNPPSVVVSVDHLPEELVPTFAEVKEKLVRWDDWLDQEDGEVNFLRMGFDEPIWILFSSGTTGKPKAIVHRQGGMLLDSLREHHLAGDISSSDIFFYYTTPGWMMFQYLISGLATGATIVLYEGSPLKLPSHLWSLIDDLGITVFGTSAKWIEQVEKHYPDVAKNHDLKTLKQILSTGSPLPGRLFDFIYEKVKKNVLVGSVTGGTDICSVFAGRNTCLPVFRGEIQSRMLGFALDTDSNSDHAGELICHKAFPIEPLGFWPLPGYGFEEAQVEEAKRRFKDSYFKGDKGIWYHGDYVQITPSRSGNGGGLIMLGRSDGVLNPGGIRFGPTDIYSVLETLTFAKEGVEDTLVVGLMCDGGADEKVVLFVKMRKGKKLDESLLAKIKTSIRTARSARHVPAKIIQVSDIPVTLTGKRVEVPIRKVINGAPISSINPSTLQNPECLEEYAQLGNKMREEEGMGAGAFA

T3: LiAcs1 (Leishmania infantum, UniProt A4I093)
T3 sequence (A4I093 1-705): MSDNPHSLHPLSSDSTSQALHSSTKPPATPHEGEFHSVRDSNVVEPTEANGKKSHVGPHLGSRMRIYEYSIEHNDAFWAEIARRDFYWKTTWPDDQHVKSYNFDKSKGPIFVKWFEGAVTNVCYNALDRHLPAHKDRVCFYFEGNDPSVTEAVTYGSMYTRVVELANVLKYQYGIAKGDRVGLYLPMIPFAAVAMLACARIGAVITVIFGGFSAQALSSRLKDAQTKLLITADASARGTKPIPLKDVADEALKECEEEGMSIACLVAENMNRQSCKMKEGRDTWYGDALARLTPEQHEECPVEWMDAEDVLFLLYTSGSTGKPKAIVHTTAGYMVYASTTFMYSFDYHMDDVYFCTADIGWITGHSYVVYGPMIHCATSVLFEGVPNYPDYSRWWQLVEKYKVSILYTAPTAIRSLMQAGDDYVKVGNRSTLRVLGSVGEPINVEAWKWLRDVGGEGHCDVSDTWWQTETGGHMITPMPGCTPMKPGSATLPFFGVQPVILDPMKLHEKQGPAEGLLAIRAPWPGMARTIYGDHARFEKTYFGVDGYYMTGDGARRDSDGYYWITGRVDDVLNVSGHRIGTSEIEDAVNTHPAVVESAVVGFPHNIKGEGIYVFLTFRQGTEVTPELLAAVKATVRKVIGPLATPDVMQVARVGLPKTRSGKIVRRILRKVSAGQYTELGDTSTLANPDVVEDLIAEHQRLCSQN


Assays:
CnAcs1 [1] = molecular target: T1, CnAcs1; assay: EnzChek pyrophosphate-release coupled assay; type: biochemical
CnKbc1 [2] = molecular target: T2, CnKbc1; assay: biochemical
LiAcs1 [3] = molecular target: T3, LiAcs1; assay: EnzChek pyrophosphate-release coupled assay; type: biochemical
CnAcs1 [4] = molecular target: T1, CnAcs1; assay: biochemical
LiAcs1 [5] = molecular target: T3, LiAcs1; assay: biochemical
CnKbc1 [6] = molecular target: T2, CnKbc1; assay: EnzChek pyrophosphate-release coupled assay; type: biochemical
CnKbc1 [7] = molecular target: T2, CnKbc1; assay: biochemical; remark: listed apart in the source
LiAcs1 [8] = molecular target: T3, LiAcs1; assay: biochemical; remark: listed apart in the source
CnAcs1 [9] = molecular target: T1, CnAcs1; assay: biochemical; remark: listed apart in the source
[10] = substrate: CC(=O)O; assay: EnzChek pyrophosphate-release coupled assay; type: biochemical, Leishmania infantum; conditions: ATP and CoA as co-substrates, 4 mM MgCl2, 37 °C
[11] = substrate: CC(=O)CC(=O)O; assay: EnzChek pyrophosphate-release coupled assay; type: biochemical, Leishmania infantum; conditions: ATP and CoA as co-substrates, 4 mM MgCl2, 37 °C

| Molecule | IC50 (CnAcs1 [1]) [µM] | IC50 (CnKbc1 [2]) [µM] | IC50 (LiAcs1 [3]) [µM] | other results |
| --- | --- | --- | --- | --- |
| Nc1ncnc2c1ncn2[C@@H]1O[C@H](COP(=O)(O)OC2CC2)[C@@H](O)[C@H]1O [iii, Cyclopropyl-AMP] | 8.7 | > 100 | 2.2 | – |
| CCCOP(=O)(O)OC[C@H]1O[C@@H](n2cnc3c(N)ncnc32)[C@H](O)[C@@H]1O [iv, Propyl-AMP] | 21.1 | > 100 | 13.5 | – |
| COP(=O)(O)OC[C@H]1O[C@@H](n2cnc3c(N)ncnc32)[C@H](O)[C@@H]1O [i, Methyl-AMP] | – | > 100 | 69.9 | IC50 (CnAcs1 [4]): > 100 µM |
| CCCCOP(=O)(O)OC[C@H]1O[C@@H](n2cnc3c(N)ncnc32)[C@H](O)[C@@H]1O [viii, Butyl-AMP] | – | – | – | IC50 (LiAcs1 [5]): > 100 µM; IC50 (CnAcs1 [4]): > 100 µM; IC50 (CnKbc1 [6]): 7.8 µM |
| Nc1ncnc2c1ncn2[C@@H]1O[C@H](COP(=O)(O)OC2CCCC2)[C@@H](O)[C@H]1O [x, Cyclopentyl-AMP] | – | – | – | IC50 (CnKbc1 [7]): > 100 µM; IC50 (LiAcs1 [8]): > 100 µM; IC50 (CnAcs1 [9]): > 100 µM |
| CCOP(=O)(O)OC[C@H]1O[C@@H](n2cnc3c(N)ncnc32)[C@H](O)[C@@H]1O [ii, Ethyl-AMP] | 8 | – | 2 | IC50 (CnKbc1 [6]): > 100 µM |
| C#CCOP(=O)(O)OC[C@H]1O[C@@H](n2cnc3c(N)ncnc32)[C@H](O)[C@@H]1O [vii, Propargyl-AMP] | 55.1 | > 100 | 10.2 | – |
| CC(C)OP(=O)(O)OC[C@H]1O[C@@H](n2cnc3c(N)ncnc32)[C@H](O)[C@@H]1O [v, Isopropyl-AMP] | 25.3 | > 100 | 6.7 | – |
| C=CCOP(=O)(O)OC[C@H]1O[C@@H](n2cnc3c(N)ncnc32)[C@H](O)[C@@H]1O [vi, Allyl-AMP] | 41 | > 100 | 12.5 | – |
| LiAcs1 (Leishmania infantum) (protein) MSDNPHSLHPLSSDSTSQALHSSTKPPATPHEGEFHSVRDSNVVEPTEANGKKSHVGPHLGSRMRIYEYSIEHNDAFWAEIARRDFYWKTTWPDDQHVKSYNFDKSKGPIFVKWFEGAVTNVCYNALDRHLPAHKDRVCFYFEGNDPSVTEAVTYGSMYTRVVELANVLKYQYGIAKGDRVGLYLPMIPFAAVAMLACARIGAVITVIFGGFSAQALSSRLKDAQTKLLITADASARGTKPIPLKDVADEALKECEEEGMSIACLVAENMNRQSCKMKEGRDTWYGDALARLTPEQHEECPVEWMDAEDVLFLLYTSGSTGKPKAIVHTTAGYMVYASTTFMYSFDYHMDDVYFCTADIGWITGHSYVVYGPMIHCATSVLFEGVPNYPDYSRWWQLVEKYKVSILYTAPTAIRSLMQAGDDYVKVGNRSTLRVLGSVGEPINVEAWKWLRDVGGEGHCDVSDTWWQTETGGHMITPMPGCTPMKPGSATLPFFGVQPVILDPMKLHEKQGPAEGLLAIRAPWPGMARTIYGDHARFEKTYFGVDGYYMTGDGARRDSDGYYWITGRVDDVLNVSGHRIGTSEIEDAVNTHPAVVESAVVGFPHNIKGEGIYVFLTFRQGTEVTPELLAAVKATVRKVIGPLATPDVMQVARVGLPKTRSGKIVRRILRKVSAGQYTELGDTSTLANPDVVEDLIAEHQRLCSQN | – | – | – | Km [10]: 61 (95% CI 45, 83) μM; Km [11]: 88 (95% CI 71, 110) μM |
